Experimental data from ChEMBL document CHEMBL1130517 (Bioorg Med Chem Lett, 1997).
pIC50: −log10 of the molar value.

Experiments:
[1] = molecular target: T1, Endothelin receptor type B (Homo sapiens, UniProt P24530); test: Receptor binding affinity was determined against [125I]ET1 with membranes prepared from human placenta for ETB receptor
T1 sequence (P24530 whole entry): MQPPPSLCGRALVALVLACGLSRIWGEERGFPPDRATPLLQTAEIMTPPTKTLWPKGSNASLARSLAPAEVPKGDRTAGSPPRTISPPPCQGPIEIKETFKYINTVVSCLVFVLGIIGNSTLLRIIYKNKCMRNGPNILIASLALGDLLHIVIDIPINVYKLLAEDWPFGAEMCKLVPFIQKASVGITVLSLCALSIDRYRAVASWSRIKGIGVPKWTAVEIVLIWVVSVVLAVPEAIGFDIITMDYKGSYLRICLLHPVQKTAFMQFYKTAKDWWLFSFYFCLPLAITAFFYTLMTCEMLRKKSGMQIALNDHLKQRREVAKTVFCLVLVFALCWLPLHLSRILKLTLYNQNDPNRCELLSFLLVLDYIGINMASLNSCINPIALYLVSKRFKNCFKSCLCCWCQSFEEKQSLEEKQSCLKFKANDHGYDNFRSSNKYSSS

Endothelin-1 receptor [2] = molecular target: T2, Endothelin-1 receptor (Rattus norvegicus, UniProt P26684); test: Evaluation for functional inhibitory potency prevention of ET-1 induced constriction of rat aortic rings (ETA receptors); settings: read-out: pA2 (converted)
T2 sequence (P26684 whole entry): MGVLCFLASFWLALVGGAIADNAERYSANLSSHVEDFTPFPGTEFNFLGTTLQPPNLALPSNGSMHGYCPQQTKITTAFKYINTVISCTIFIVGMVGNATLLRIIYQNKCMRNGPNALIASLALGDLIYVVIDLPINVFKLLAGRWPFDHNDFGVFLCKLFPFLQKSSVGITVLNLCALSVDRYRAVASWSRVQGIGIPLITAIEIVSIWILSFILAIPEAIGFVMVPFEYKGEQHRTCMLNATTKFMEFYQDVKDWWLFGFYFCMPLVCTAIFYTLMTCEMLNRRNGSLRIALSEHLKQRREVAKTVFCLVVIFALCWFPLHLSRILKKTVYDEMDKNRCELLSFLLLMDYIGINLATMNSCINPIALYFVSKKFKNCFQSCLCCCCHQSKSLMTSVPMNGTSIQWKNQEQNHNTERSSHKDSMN

Endothelin-1 receptor [3] = molecular target: T3, Endothelin-1 receptor (Homo sapiens, UniProt P25101); test: Receptor binding affinity was determined against [125I]ET1 with recombinant human ETA receptor, expressed in baculovirus-infected Sf9 cells
T3 sequence (P25101 whole entry): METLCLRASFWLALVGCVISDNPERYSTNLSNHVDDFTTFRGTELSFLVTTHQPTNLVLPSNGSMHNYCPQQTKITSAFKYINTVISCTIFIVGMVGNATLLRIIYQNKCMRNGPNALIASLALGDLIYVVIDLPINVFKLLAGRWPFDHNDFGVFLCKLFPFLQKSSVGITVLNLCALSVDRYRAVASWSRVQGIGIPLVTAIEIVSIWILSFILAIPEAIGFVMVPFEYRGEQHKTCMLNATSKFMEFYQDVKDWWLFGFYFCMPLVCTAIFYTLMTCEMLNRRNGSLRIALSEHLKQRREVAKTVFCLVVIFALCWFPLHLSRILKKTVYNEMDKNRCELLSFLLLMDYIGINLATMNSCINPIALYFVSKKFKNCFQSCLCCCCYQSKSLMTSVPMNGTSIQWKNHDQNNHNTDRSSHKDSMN

[4] = molecular target: T4, Endothelin receptor type B (Rattus norvegicus, UniProt P21451); test: Compound was evaluated for in vitro functional inhibitory potency for prevention of sarafotoxin S6c induced constriction of rat tracheal rings (ETB receptors); settings: read-out: pA2 (converted)
T4 sequence (P21451 whole entry): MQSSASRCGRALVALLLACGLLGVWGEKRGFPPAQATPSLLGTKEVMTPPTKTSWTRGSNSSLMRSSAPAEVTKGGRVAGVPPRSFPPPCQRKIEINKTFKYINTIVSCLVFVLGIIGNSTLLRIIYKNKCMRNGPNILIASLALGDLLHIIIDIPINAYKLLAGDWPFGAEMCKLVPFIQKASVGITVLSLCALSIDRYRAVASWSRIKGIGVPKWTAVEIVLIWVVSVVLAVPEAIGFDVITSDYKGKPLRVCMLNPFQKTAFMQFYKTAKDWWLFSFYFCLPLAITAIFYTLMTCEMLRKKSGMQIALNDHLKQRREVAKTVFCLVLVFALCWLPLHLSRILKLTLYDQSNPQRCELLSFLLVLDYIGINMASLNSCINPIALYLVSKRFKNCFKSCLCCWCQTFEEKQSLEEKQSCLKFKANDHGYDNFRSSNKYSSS

Endothelin-1 receptor [5] = molecular target: T2, Endothelin-1 receptor; test: Compound was evaluated for in vitro functional inhibitory potency for prevention of ET-1 induced constriction of rat aortic rings (ETA receptors); settings: read-out: pA2 (converted)
Endothelin-1 receptor [6] = molecular target: T3, Endothelin-1 receptor; test: Receptor binding affinity was determined in a radioligand binding assay against [125I]ET1 with recombinant human ETA receptor, expressed in baculovirus-infected […] cells

| SMILES | pIC50 [1] | Kb (Endothelin-1 receptor [2]) | pIC50 (Endothelin-1 receptor [3]) | Kb [4] | Kb (Endothelin-1 receptor [5]) | pIC50 (Endothelin-1 receptor [6]) |
| --- | --- | --- | --- | --- | --- | --- |
| CCCc1nc(NS(=O)(=O)c2ccc(C(C)(C)C)cc2)c(Oc2ccccc2OC)c(OCCOC(=O)Nc2ccccn2)n1 | 7.20 | 12.6 nM | 8.05 | – | – | – |
| COc1ccccc1Oc1c(NS(=O)(=O)c2ccc(C(C)(C)C)cc2)nc(C(C)(C)C)nc1OCCOC(=O)Nc1ccccn1 | 6.84 | 25.1 nM | 7.85 | – | – | – |
| COc1ccccc1Oc1c(NS(=O)(=O)c2ccc(C(C)(C)C)cc2)nc(C)nc1OCCOC(=O)Nc1ccncc1 | 5.55 | – | 5.72 | – | – | – |
| COc1ccccc1Oc1c(NS(=O)(=O)c2ccc(C(C)C)cn2)nc(N2CCSCC2)nc1OCCOC(=O)Nc1ccccn1 | 7.85 | 1.58 nM | 9.00 | – | – | – |
| CNCC(=O)OCCOc1nc(C)nc(NS(=O)(=O)c2ccc(C(C)(C)C)cc2)c1Oc1ccccc1OC | 6.52 | – | 5.77 | – | – | – |
| COc1ccccc1Oc1c(NS(=O)(=O)c2ccc(C(C)(C)C)cc2)nc(-c2ncccn2)nc1OCCOC(=O)Nc1ccccn1 | 7.37 | 1 nM | – | – | – | – |
| COc1ccccc1Oc1c(NS(=O)(=O)c2ccc(C(C)C)cn2)nc(-c2ncccn2)nc1OCCOC(=O)Nc1ccccn1 | 7.31 | 0.1 nM | 8.40 | – | – | – |
| COc1ccccc1Oc1c(NS(=O)(=O)c2ccc(C)cn2)nc(-c2ncccn2)nc1OCCOC(=O)Nc1ccccn1 | 6.77 | 1 nM | 8.40 | – | – | – |
| COc1ccccc1Oc1c(NS(=O)(=O)c2ccc(C(C)(C)C)cc2)nc(N2CCOCC2)nc1OCCOC(=O)Nc1ccccn1 | 7.72 | 10 nM | 7.77 | – | – | – |
| COc1ccccc1Oc1c(NS(=O)(=O)c2ccc(C(C)(C)C)cc2)nc(-c2cccs2)nc1OCCOC(=O)Nc1ccccn1 | 6.70 | 10 nM | 7.52 | – | – | – |
| COc1ccccc1Oc1c(NS(=O)(=O)c2ccc(C)cn2)nc(N2CCOCC2)nc1OCCOC(=O)Nc1ccccn1 | 7.60 | 0.2 nM | 9.70 | – | – | – |
| COc1ccccc1Oc1c(NS(=O)(=O)c2ccc(C(C)(C)C)cc2)nc(C2CC2)nc1OCCOC(=O)Nc1ccccn1 | 7.22 | 20 nM | 8.15 | – | – | – |
| COc1ccccc1Oc1c(NS(=O)(=O)c2ccc(C(C)(C)C)cc2)nc(C)nc1OCCOC(=O)c1cccnc1 | 6.11 | – | 6.06 | – | – | – |
| COc1ccccc1Oc1c(NS(=O)(=O)c2ccc(C(C)(C)C)cc2)nc(C)nc1OCCOC(=O)Nc1cccnc1 | 6.15 | – | 6.05 | – | – | – |
| COc1ccccc1Oc1c(NS(=O)(=O)c2ccc(C(C)(C)C)cc2)nc(C)nc1OCCOC(=O)Nc1ccccn1 | 6.92 | – | 8.10 | – | – | – |
| COc1ccccc1Oc1c(NS(=O)(=O)c2ccc(C(C)C)cn2)nc(N2CCCCC2)nc1OCCOC(=O)Nc1ccccn1 | 7.60 | 5.01 nM | 8.52 | – | – | – |
| COc1ccccc1Oc1c(NS(=O)(=O)c2ccc(C(C)(C)C)cc2)nc(C)nc1OCCNC(=O)Nc1ccccn1 | 5.91 | – | 7.10 | – | – | – |
| COc1ccccc1Oc1c(NS(=O)(=O)c2ccc(C(C)(C)C)cc2)nc(C(C)C)nc1OCCOC(=O)Nc1ccccn1 | 6.80 | 15.8 nM | 8.15 | – | – | – |
| COc1ccccc1Oc1c(NS(=O)(=O)c2ccc(C(C)C)cn2)nc(N2CCOCC2)nc1OCCOC(=O)Nc1ccccn1 | 8.30 | – | 9.52 | 25.1 nM | 0.501 nM | 9.15 |
| COc1ccccc1Oc1c(NS(=O)(=O)c2ccc(C(C)(C)C)cc2)nc(C)nc1OCCO | 7.15 | – | 5.82 | – | – | – |
| COc1ccccc1Oc1c(NS(=O)(=O)c2ccc(C(C)(C)C)cc2)nc(C)nc1OCCOC(=O)c1ccoc1 | 6.00 | – | 5.96 | – | – | – |
| COc1ccccc1Oc1c(NS(=O)(=O)c2ccc(C(C)(C)C)cc2)nc(-c2ncccn2)nc1OCCO [BOSENTAN] | – | – | – | 1580 nM | 50.1 nM | – |
